Converted amounts (≈) assume the structure as drawn.
Columns and labels:
[1] = Cytotoxicity against human HuH7 cells assessed as cell viability after 24 hrs by MTS assay; assay type: cell-based; conditions: Huh-7, 24 h
[2] = Cytotoxicity against MDCK2-MDR1 cells assessed as cell viability at 20 uM after 48 hrs by MTS assay; assay type: ADME, cell-based, Canis lupus familiaris, MDCK-II; conditions: dog, read-out: Activity
[3] = Cytotoxicity against MDCK2-MDR1 cells assessed as cell viability at 20 uM after 24 hrs by MTS assay; assay type: ADME, cell-based, Canis lupus familiaris, MDCK-II; conditions: dog, read-out: Activity
[4] = tested on: HeLa; assay: Cytotoxicity against human HeLa cells assessed as cell viability after 24 hrs by MTS assay; assay type: cell-based
[5] = Cytotoxicity against human HuH7 cells assessed as cell viability at 20 uM after 48 hrs by MTS assay; assay type: cell-based, Huh-7; conditions: read-out: Activity
[6] = Cytotoxicity against MDCK2-MDR1 cells assessed as cell viability after 24 hrs by MTS assay; assay type: ADME, cell-based; conditions: Canis lupus familiaris, MDCK-II
[7] = Cytotoxicity against human HeLa cells assessed as cell viability at 20 uM after 48 hrs by MTS assay; assay type: cell-based; conditions: read-out: Activity
[8] = tested on: Mycobacterium kansasii; assay: Antimycobacterial activity against Mycobacterium kansasii CNCTC My 6509/96 after 21 days by microdilution method; assay type: functional; conditions: CNCTC My 6509/96, 504 h
[9] = Cytotoxicity against MDCK2-MDR1 cells assessed as cell viability after 48 hrs by MTS assay; assay type: ADME, cell-based; conditions: Canis lupus familiaris, MDCK-II
[10] = Cytotoxicity against human HeLa cells assessed as cell viability at 20 uM after 24 hrs by MTS assay; assay type: cell-based; conditions: read-out: Activity
[11] = Cytotoxicity against human HuH7 cells assessed as cell viability at 20 uM after 24 hrs by MTS assay; assay type: cell-based, Huh-7; conditions: read-out: Activity
[12] = tested on: Mycobacterium avium; assay: Antimycobacterial activity against Mycobacterium avium CNCTC My 330/88 after 14 days by microdilution method; assay type: functional; conditions: CNCTC My 330/88, 336 h
[13] = tested on: Mycobacterium kansasii; assay: Antimycobacterial activity against Mycobacterium kansasii CNCTC My 235/80 after 21 days by microdilution method; assay type: functional; conditions: CNCTC My 235/80, 504 h
[14] = tested on: Mycobacterium tuberculosis; assay: Antimycobacterial activity against Mycobacterium tuberculosis CNCTC My 331/88 after 14 days by microdilution method; assay type: functional; conditions: CNCTC My 331/88, 336 h
[15] = tested on: Mycobacterium kansasii; assay: Antimycobacterial activity against Mycobacterium kansasii CNCTC My 6509/96 after 7 days by microdilution method; assay type: functional; conditions: CNCTC My 6509/96, 168 h
[16] = tested on: Mycobacterium kansasii; assay: Antimycobacterial activity against Mycobacterium kansasii CNCTC My 235/80 after 7 days by microdilution method; assay type: functional; conditions: CNCTC My 235/80, 168 h
[17] = tested on: Salmonella typhimurium; assay: Mutagenic activity in Salmonella typhimurium TA98 assessed as reverse mutation at 30 uM by Ames test; assay type: toxicity, organism-based; conditions: salmonella enterica subsp. enterica serovar typhimurium
[18] = tested on: Mycobacterium kansasii; assay: Antimycobacterial activity against Mycobacterium kansasii CNCTC My 6509/96 after 14 days by microdilution method; assay type: functional; conditions: CNCTC My 6509/96, 336 h
[19] = tested on: Mycobacterium tuberculosis; assay: Antimycobacterial activity against Mycobacterium tuberculosis CNCTC My 331/88 after 21 days by microdilution method; assay type: functional; conditions: CNCTC My 331/88, 504 h
[20] = tested on: Mycobacterium avium; assay: Antimycobacterial activity against Mycobacterium avium CNCTC My 330/88 after 21 days by microdilution method; assay type: functional; conditions: CNCTC My 330/88, 504 h
[21] = tested on: HeLa; assay: Cytotoxicity against human HeLa cells assessed as cell viability after 48 hrs by MTS assay; assay type: cell-based
[22] = tested on: Mycobacterium kansasii; assay: Antimycobacterial activity against Mycobacterium kansasii CNCTC My 235/80 after 14 days by microdilution method; assay type: functional; conditions: CNCTC My 235/80, 336 h
[23] = tested on: Salmonella typhimurium; assay: Mutagenic activity in Salmonella typhimurium TA100 assessed as reverse mutation at 30 uM by Ames test; assay type: toxicity, organism-based; conditions: salmonella enterica subsp. enterica serovar typhimurium
[24] = tested on: Enterococcus faecalis; assay: Antibacterial activity against Enterococcus faecalis J 14365/08 after 24 to 48 hrs by broth microdilution method; assay type: functional
[25] = tested on: Klebsiella pneumoniae; assay: Antibacterial activity against ESBL producing Klebsiella pneumoniae J 14368/08 after 24 to 48 hrs by broth microdilution method; assay type: functional
[26] = tested on: Klebsiella pneumoniae; assay: Antibacterial activity against Klebsiella pneumoniae D 11750/08 after 24 to 48 hrs by broth microdilution method; assay type: functional
[27] = tested on: Staphylococcus aureus; assay: Antibacterial activity against methicillin-resistant Staphylococcus aureus H 5996/08 after 24 to 48 hrs by broth microdilution method; assay type: functional
[28] = tested on: Pichia kudriavzevii; assay: Antifungal activity against Candida krusei E28 after 24 to 48 hrs by broth microdilution method; assay type: functional
[29] = tested on: Staphylococcus epidermidis; assay: Antibacterial activity against Staphylococcus epidermidis H 6966/08 after 24 to 48 hrs by broth microdilution method; assay type: functional
[30] = tested on: Trichosporon asahii; assay: Antifungal activity against Trichosporon asahii 1188 after 24 to 48 hrs by broth microdilution method; assay type: functional
[31] = tested on: Pseudomonas aeruginosa; assay: Antibacterial activity against Pseudomonas aeruginosa ATCC 9027 after 24 to 48 hrs by broth microdilution method; assay type: functional
[32] = tested on: Candida albicans; assay: Antifungal activity against Candida albicans ATCC 44859 after 24 to 48 hrs by broth microdilution method; assay type: functional
[33] = tested on: Escherichia coli; assay: Antibacterial activity against Escherichia coli ATCC 8739 after 24 to 48 hrs by broth microdilution method; assay type: functional
[34] = tested on: Nakaseomyces glabratus; assay: Antifungal activity against Candida glabrata 20/I after 24 to 48 hrs by broth microdilution method; assay type: functional
[35] = tested on: Lichtheimia corymbifera; assay: Antifungal activity against Absidia corymbifera 272 after 24 to 48 hrs by broth microdilution method; assay type: functional
[36] = tested on: Candida tropicalis; assay: Antifungal activity against Candida tropicalis 156 after 24 to 48 hrs by broth microdilution method; assay type: functional
[37] = tested on: Trichophyton mentagrophytes; assay: Antifungal activity against Trichophyton mentagrophytes 445 after 72 to 120 hrs by broth microdilution method; assay type: functional
[38] = tested on: Staphylococcus aureus; assay: Antibacterial activity against Staphylococcus aureus ATCC 6538 after 24 to 48 hrs by broth microdilution method; assay type: functional
[39] = tested on: Aspergillus fumigatus; assay: Antifungal activity against Aspergillus fumigatus 231 after 24 to 48 hrs by broth microdilution method; assay type: functional

| SMILES | IC50 [1] [µM] | viability at 48 h, 20 µM [2] [%] | viability at 24 h, 20 µM [3] [%] | IC50 [4] [µM] | viability at 48 h, 20 µM [5] [%] | IC50 [6] [µM] | viability at 48 h, 20 µM [7] [%] | MIC99 [8] [µM] | IC50 [9] [µM] | viability at 24 h, 20 µM [10] [%] | viability at 24 h, 20 µM [11] [%] | MIC99 [12] [µM] | MIC99 [13] [µM] | MIC99 [14] [µM] | MIC99 [15] [µM] | MIC99 [16] [µM] | MIC99 [18] [µM] | MIC99 [19] [µM] | MIC99 [20] [µM] | MIC99 [22] [µM] | other results |
| --- | --- | --- | --- | --- | --- | --- | --- | --- | --- | --- | --- | --- | --- | --- | --- | --- | --- | --- | --- | --- | --- |
| COc1ccc(-c2nnc(SCc3cc([N+](=O)[O-])cc([N+](=O)[O-])c3)o2)cc1 | > 20 | 14.5 | 80.6 | > 20 | 34.1 | > 20 | 37.3 | 0.5 (≈ 0.194 µg/mL) | 10.6 | 83.9 | 91.6 |  |  |  |  |  |  |  |  |  |  |
| O=[N+]([O-])c1cc(CSc2nnc(-c3ccccc3)s2)cc([N+](=O)[O-])c1 | > 20 | 7.3 | 97.8 | > 20 | 36.3 | > 20 | 15.9 | 1 (≈ 0.374 µg/mL) | 3.1 | 78.5 | 84.3 | 8 (≈ 3 µg/mL) | 1 (≈ 0.374 µg/mL) | 0.06 (≈ 0.0225 µg/mL) | 0.25 (≈ 0.0936 µg/mL) | 0.25 (≈ 0.0936 µg/mL) | 0.5 (≈ 0.187 µg/mL) | 0.125 (≈ 0.0468 µg/mL) | 16 (≈ 5.99 µg/mL) | 0.5 (≈ 0.187 µg/mL) | Activity [17]: Non-toxic; IC50 [21]: 2.4 µM; Activity [23]: Non-toxic |
| O=[N+]([O-])c1cc(CSc2nnc(-c3ccc(Cl)cc3)o2)cc([N+](=O)[O-])c1 |  |  |  |  |  |  |  | 0.5 (≈ 0.196 µg/mL) |  |  |  | > 125 |  |  |  |  |  |  | > 125 |  | MIC95 [24]: > 125 µM; MIC95 [25]: > 125 µM; MIC95 [26]: > 125 µM; MIC95 [27]: > 125 µM; MIC80 [28]: > 125 µM; MIC95 [29]: > 125 µM; MIC80 [30]: > 125 µM; MIC95 [31]: > 125 µM; MIC80 [32]: > 125 µM; MIC95 [33]: > 125 µM; MIC80 [34]: > 125 µM; MIC50 [35]: > 125 µM; MIC80 [36]: > 125 µM; MIC50 [37]: > 125 µM; MIC95 [38]: > 125 µM; MIC50 [39]: > 125 µM |
| O=[N+]([O-])c1ccc(CSc2nnc(-c3ccc(Cl)cc3)s2)c([N+](=O)[O-])c1 |  |  |  |  |  |  |  | 4 (≈ 1.64 µg/mL) |  |  |  | 4 (≈ 1.64 µg/mL) | 4 (≈ 1.64 µg/mL) | 2 (≈ 0.818 µg/mL) | 1 (≈ 0.409 µg/mL) | 1 (≈ 0.409 µg/mL) | 2 (≈ 0.818 µg/mL) | 4 (≈ 1.64 µg/mL) | 8 (≈ 3.27 µg/mL) | 2 (≈ 0.818 µg/mL) | MIC95 [24]: > 125 µM; MIC95 [25]: > 125 µM; MIC95 [26]: > 125 µM; MIC95 [27]: > 125 µM; MIC80 [28]: > 125 µM; MIC95 [29]: > 125 µM; MIC80 [30]: > 125 µM; MIC95 [31]: > 125 µM; MIC80 [32]: > 125 µM; MIC95 [33]: > 125 µM; MIC80 [34]: > 125 µM; MIC50 [35]: > 125 µM; MIC80 [36]: > 125 µM; MIC50 [37]: > 125 µM; MIC95 [38]: > 125 µM; MIC50 [39]: > 125 µM |
| O=[N+]([O-])c1ccc(CSc2nnc(-c3ccc(Cl)cc3)o2)c([N+](=O)[O-])c1 |  |  |  |  |  |  |  | 8 (≈ 3.14 µg/mL) |  |  |  | 8 (≈ 3.14 µg/mL) | 4 (≈ 1.57 µg/mL) | 2 (≈ 0.786 µg/mL) | 4 (≈ 1.57 µg/mL) | 2 (≈ 0.786 µg/mL) | 8 (≈ 3.14 µg/mL) | 2 (≈ 0.786 µg/mL) | 16 (≈ 6.28 µg/mL) | 4 (≈ 1.57 µg/mL) | MIC95 [24]: > 125 µM; MIC95 [25]: > 125 µM; MIC95 [26]: > 125 µM; MIC95 [27]: > 125 µM; MIC80 [28]: > 125 µM; MIC95 [29]: > 125 µM; MIC80 [30]: > 125 µM; MIC95 [31]: > 125 µM; MIC80 [32]: > 125 µM; MIC95 [33]: > 125 µM; MIC80 [34]: > 125 µM; MIC50 [35]: > 125 µM; MIC80 [36]: > 125 µM; MIC50 [37]: > 125 µM; MIC95 [38]: > 125 µM; MIC50 [39]: > 125 µM |
| O=[N+]([O-])c1cc(CSc2nnc(-c3cccc(Cl)c3)o2)cc([N+](=O)[O-])c1 | > 20 | 57.9 | 93.3 | > 20 | 45.9 | > 20 | 34.6 | 1 (≈ 0.393 µg/mL) | > 20 | 81.9 | 97.9 | 16 (≈ 6.28 µg/mL) | 0.5 (≈ 0.196 µg/mL) | ≤ 0.03 | 0.125 (≈ 0.0491 µg/mL) | 0.125 (≈ 0.0491 µg/mL) | 0.5 (≈ 0.196 µg/mL) | 0.06 (≈ 0.0236 µg/mL) | 16 (≈ 6.28 µg/mL) | 0.25 (≈ 0.0982 µg/mL) | Activity [17]: Non-toxic; Activity [23]: Non-toxic |
